Results: ChEMBL document CHEMBL1148388, “Restriction of a peptide turn conformation and conformational analysis of guanidino group using arginine-proline fused amino acids: application to mini atrial natriuretic peptide on binding to the receptor” (J Med Chem, 2004)

Experiment: Effective concentration required for production of cGMP in Chinese hamster ovary cells expressing natriuretic peptide receptor A (NPR-A)
Type: functional, cell-based

CC[C@H](C)[C@@H]1NC(=O)[C@@H](CCCN=C(N)N)NC(=O)[C@H](CC(=O)O)NC(=O)[C@@H](CCSC)NC(=O)[C@H](CCCN=C(N)N)NC(=O)CNC(=O)CNC(=O)[C@@H](Cc2ccccc2)NC(=O)[C@H](Cc2c[nH]cn2)NC(=O)[C@@H](NC(=O)[C@@H](N)CCSC)CSSC[C@H](C(=O)N[C@@H](Cc2ccc(O)cc2)C(=O)N[C@@H](CCCN=C(N)N)C(N)=O)NC(=O)[C@@H](CO)NC1=O [MiniANP]
EC50: 3.1 nM
